Patent US20200121704A1, “METHODS FOR TREATING HYPERTENSION AND ARTERIAL STIFFNESS” (THE REGENTS OF THE UNIVERSITY OF COLORADO, A BODY CORPORATE, priority 2017, published 2020)

What was measured:
PBMCs = assay: NAD+ and related metabolites in PBMCs; assay type: in vivo, human
Excerpt: Oral NR supplementation effectively elevated levels of NAD^+ in PBMCs by about 60% compared with placebo (mean change=6.2 pMol/mg protein) (Table 6). […] Of note, NR also elevated levels of nicotinic acid adenine dinucleotide (NAAD) nearly 5-fold above the placebo condition. […] Though not significant, we also observed an ˜1.5-fold increase in nicotinamide mononucleotide (NMN; mean change=0.72 pMol/mg protein), which may indicate the possible conversion of NR to NMN by nicotinamide riboside kinase (NRK) enzymes or further metabolism of NaM into NMN by nicotinamide phosphoribosyltransferase (NAMPT). […] Collectively, these findings indicate that chronic NR supplementation effectively stimulates NAD^+ metabolism in healthy middle-aged and older men and women.

[1] = test system: healthy middle-aged and older adults; assay: Resting brachial artery blood pressure; assay type: in vivo, human
Procedure: Resting brachial artery blood pressure and heart rate were measured in the seated position after 5 minutes of rest in a quiet examination room using a semi-automated blood pressure device (DYNAMAP™ XL, Johnson & Johnson, Arlington, Tex., USA). Measurements were made multiple times from the non-dominant arm, with 2 minutes of quiet rest between recordings. Repeat measurements were made until 3 blood pressure values were obtained that were within 5 mmHg of one another. These values were then averaged to determine resting systolic and diastolic blood pressure, pulse pressure, mean arterial pressure, and resting heart rate. Baseline blood pressure values were obtained using the above-described protocol on two separate testing days prior to the initiation of the first intervention arm and were averaged to determine baseline blood pressure status (i.e., normotensive vs. pre-hypertensive) for subsequent analyses.
To determine if this effect was greater in subjects with elevated baseline blood pressure, subjects were characterized as either normotensive (SBP <120 mmHg; DBP <80 mmHg) or pre-hypertensive (SBP 120-139 mmHg; DBP 80-89 mmHg) based on their average baseline blood pressure obtained on two separate days. The inventors observed a near significant interaction between treatment condition (NR vs. placebo) and blood pressure status for systolic blood pressure (FIG. 3A; P=0.07), with no effect on diastolic pressure (FIG. 3C), and […] on mean arterial pressure (FIG. 3E; P=0.08). […] Diastolic blood pressure also tended to be reduced in prehypertensive individuals; however this effect was lower in magnitude (3 mmHg reduction) and approached significance (FIG. 3D; P=0.09).

[2] = PBMCs, NR condition, mean ± SD, N = 21
[3] = PBMCs, NR condition, mean ± SD, N = 21, *p < 0.05
[4] = PBMCs, did not reach statistical significance
[5] = all subjects, NR condition compared with placebo, P<0.05
[6] = pre-hypertensive individuals, P<0.01

SMILES: NC(=O)c1ccc[n+]([C@@H]2O[C@H](CO)[C@@H](O)[C@H]2O)c1 [NR, nicotinamide riboside]
- Elevation of NAAD above the placebo condition (PBMCs; PBMCs): ~5 fold
- NR (PBMCs; PBMCs, NR condition, N = 21): <LOQ
- 2-3 cAMP (PBMCs; [2]): 0.0 ± 0.0 pMol/mg protein
- 3-5 cAMP (PBMCs; [2]): 0.0 ± 0.0 pMol/mg protein
- ADP (PBMCs; [2]): 1133.8 ± 1880.4 pMol/mg protein
- AMP (PBMCs; [2]): 770.8 ± 1884.3 pMol/mg protein
- CDP (PBMCs; [2]): 67.7 ± 113.1 pMol/mg protein
- CMP (PBMCs; [2]): 137.2 ± 366.0 pMol/mg protein
- CTP (PBMCs; [2]): 41.0 ± 68.4 pMol/mg protein
- Cytidine (PBMCs; [2]): 4.7 ± 6.6 pMol/mg protein
- FAD (PBMCs; [2]): 10.2 ± 5.9 pMol/mg protein
- GDP (PBMCs; [2]): 198.4 ± 329.0 pMol/mg protein
- GMP (PBMCs; [2]): 1010.1 ± 2114.8 pMol/mg protein
- GTP (PBMCs; [2]): 327.1 ± 119.1 pMol/mg protein
- Guanosine (PBMCs; [2]): 0.5 ± 1.5 pMol/mg protein
- NADP (PBMCs; [2]): 8.9 ± 8.7 pMol/mg protein
- NMN (PBMCs; [2]): 1.2 ± 3.3 pMol/mg protein
- NaM (PBMCs; [2]): 383.8 ± 282.7 pMol/mg protein
- UDP (PBMCs; [2]): 270.0 ± 420.7 pMol/mg protein
- UMP (PBMCs; [2]): 1113.7 ± 2374.2 pMol/mg protein
- UTP (PBMCs; [2]): 340.3 ± 150.1 pMol/mg protein
- Uridine (PBMCs; [2]): 278.3 ± 718.4 pMol/mg protein
- cCMP (PBMCs; [2]): 1.8 ± 8.4 pMol/mg protein
- cGMP (PBMCs; [2]): 0.0 ± 0.0 pMol/mg protein
- ATP (PBMCs; [3]): 2435.7 ± 1230.3* pMol/mg protein
- Adenosine (PBMCs; [3]): 14.4 ± 9.7* pMol/mg protein
- NAAD (PBMCs; [3]): 1.4 ± 2.2* pMol/mg protein
- NAD+ (PBMCs; [3]): 16.2 ± 14.1* pMol/mg protein
- ATP mean change (PBMCs; PBMCs, NR vs placebo): 699 pMol/mg protein
- Mean concentration of adenosine (PBMCs; PBMCs, NR vs placebo): increases in the mean concentration
- Mean concentration of nicotinamide (NaM) (PBMCs; PBMCs, NR vs placebo): elevated the mean concentration of nicotinamide (NaM), but this was not statistically significant
- Mean level of NADP+ (PBMCs; PBMCs, NR vs placebo): increased, but did not reach statistical significance
- NAD+ mean change (PBMCs; PBMCs, NR vs placebo): 6.2 pMol/mg protein
- NMN mean change (PBMCs; PBMCs, NR vs placebo): 0.72 pMol/mg protein
- Levels of adenosine diphosphate (ADP) (PBMCs; [4]): tended to raise
- Levels of adenosine monophosphate (AMP) (PBMCs; [4]): tended to raise
- Increase in NMN (PBMCs; PBMCs, not significant): ~1.5 fold
- Elevation of NAD+ levels in PBMCs compared with placebo (PBMCs; oral NR supplementation): about 60%
- Mean arterial blood pressure ([1]; all subjects): moderately lowered
- Resting diastolic blood pressure [1, 5]: significantly reduced
- Resting systolic blood pressure [1, 5]: significantly reduced
- Pre-hypertension, hypertension, and arterial stiffness ([1]; human subjects, 500 mg twice daily, within 6 weeks or less): significant improvements
- Blood pressure ([1]; normotensive individuals): no effect
- Lowering of systolic blood pressure compared with placebo [1, 6]: 8 mmHg
- Mean (arterial) pressure [1, 6]: significant reduction
- Reduction of diastolic blood pressure ([1]; prehypertensive individuals, P=0.09): 3 mmHg
